{"source": "patent US20170261495A1", "about": "“MODEL SYSTEMS FOR SCREENING MODULATORS OF mTOR SIGNALING” (SHRINERS HOSPITALS FOR CHILDREN, priority 2015, published 2017)", "origin": "cited, not measured here", "conditions": "clinical trials"}
{"smiles": "CO[C@H]1C[C@@H]2CC[C@@H](C)[C@@](O)(O2)C(=O)C(=O)N2CCCC[C@H]2C(=O)O[C@H]([C@H](C)C[C@@H]2CC[C@@H](OCCO)[C@H](OC)C2)CC(=O)[C@H](C)/C=C(\\C)[C@@H](O)[C@@H](OC)C(=O)[C@H](C)C[C@H](C)/C=C/C=C/C=C/1C", "note": "[everolimus]", "values": [{"measurement": "effects on epilepsy", "setting": "TSC", "result": "minimal"}, {"measurement": "size of renal and brain tumors", "setting": "TSC (Krueger et al., 2010)", "result": "clear reduction"}]}
